Like-named read-outs stand apart in the source and are kept apart here. No end group written: not given here.
Assays:
[1] = 200 nm streptavidin-coated iron oxide beads; FIGS. 4A and 4B
Description: Humans can perceive color that is in about the 400 nm to 700 nm range. Ultraviolet light, i.e., 200-400 nm is not visible to humans.

[2] = fluorescence microscopy, FIG. 1
Description: A biotinylated peptide and streptavidin-coated bead system was used to illustrate the coupling of beads to hair in accordance with the methods and compositions of this invention.
A human hair sample was placed in an aqueous solution containing 20 mM of HCP5 dimer peptide (SEQ ID NO: 204) derived in accordance with the methods set forth herein. […] The HCP5 dimer was purchased from American Peptide Co., Inc. (Sunnyvale, Calif.) in both biotinylated (SEQ ID NO: 205) and non-biotinylated (SEQ ID NO: 204) versions (a single lysine residue was added to the C-terminus of the biotinylated version to facilitate biotin coupling).
Hair samples were pretreated by exposing the hair samples to either the biotinylated or the non-biotinylated peptide. Ten strands of natural dark brown hair (International Hair Importers), three inches in length, were pre-washed with 2% SLES for 30 seconds, then rinsed extensively with DI water. The hair strands were then immersed in 10 mL of a 5-20 micromolar solution of peptide for up to one hour. Ten hair samples were exposed to the biotinylated peptide and ten hair samples were exposed to non-biotinylated peptide. […]
After the incubation period ended, fluorescence microscopy was used to view the binding of 40 nm fluorescently-labeled streptavidin-coated polystyrene particles to hair.

[3] = Visual color assessment of hair treated with peptide then streptavidin-coated iron oxide beads (sequential coloring); conditions: for perceptible color: Tables 17-19; for color intensity value (0-5, 0 no color deposition, 5 deepest color): Table 15, streptavidin-coated iron oxide beads 500 nm
Description: A biotinylated peptide and streptavidin-bead system was used to color hair. Sequential deposition was achieved by the following process.
Miniature hair tresses of approximately 1 inch in length containing 100% unpigmented hair were placed in an aqueous solution with 20 mM of peptides (in DI water or Tris Buffered Saline, pH 7.2, 5-150 mM ionic strength), for up to one hour at room temperature, derived in accordance with the methods set forth herein.
Hair samples were pretreated by exposing the hair to different peptides. The peptide created a layer on the hair. Hair samples with a peptide layer were rinsed with SLES solution to remove excess peptide. Next, the peptide-treated hair samples were incubated with streptavidin tagged iron oxide particles (Bangs Laboratories, Inc., Fishers, Ind.; Ademtech, Inc., Pessas, France) to allow the binding between biotin and streptavidin or between the streptavidin-binding domain in HC260 and streptavidin. Particles were purchased in dispersed form and were diluted to 0.025-1 wt % by adding a specified amount of either DI water or Coupling Buffer from Ademtech. Binding was permitted to take place during an incubation period for up to 24 hours at room temperature (˜22° C.) in the dark. Samples were continuously inverted end-over-end during the binding duration incubation period.
A color scale for the associated color intensity of iron oxide treated hair was defined as (0-5), where 0 is no color deposition and 5 is the deepest color.

[4] = biotinylated peptide, streptavidin-HRP ELISA
Description: See, e.g., Example 3 of U.S. Patent Application Publication 2005/022683; hereby incorporated by reference. The MB50 provides an indication of the strength of the binding interaction or affinity of the components of the complex. […] For example, a peptide with a nanomolar (nM) MBso binds more tightly than a peptide with a micromolar (μM) MB50.
The purpose of this Example was to determine the affinity and specificity of the various hair-binding peptides for hair and pigment surfaces, measured as MB50 values, using an ELISA assay. Each of the short, linear peptides were originally identified using phage display. Unless otherwise indicated, the sequences provided in Example 2 include a C-terminal lysine residue that was biotinylated for detection purposes.
The MB50 measurements of biotinylated peptides binding to hair and to red iron oxide particles (Unipure Red from Sensient Technologies, Milwaukee, Wis.) were made using hair bundles. The hair samples were assembled in bundles consisting of 100 hairs about 1 cm long which were bundled together using narrow tape at one end. The hair bundles were incubated in SUPERBLOCK® blocking buffer (Pierce Chemical Co., Rockford, Ill.) for 1 hour at room temperature (˜22° C.), followed by 3 washes with TBST (TBS in 0.05% TWEEN® 20). Peptide binding buffer consisting of various concentrations of biotinylated peptide in TBST and 1 mg/mL BSA was added to the hair bundles and incubated for 1 hour at room temperature, followed by 6 TBST washes. Then, the streptavidin-horseradish peroxidase (HRP) conjugate (Pierce Chemical Co., Rockford, Ill.) was added to each well (1.0 μg per well), and incubated for 1 h at room temperature, followed by 6 times of washes with TBST. All hair bundles were transferred to new tubes and then the color development and the absorbance measurements were performed following standard protocols. The results were plotted as A450 versus the concentration of peptide using GraphPad Prism 4.0 (GraphPad Software, Inc., San Diego, Calif.).

streptavidin = streptavidin (Streptomyces avidinii, UniProt P22629); experiment: biochemical
[5] = Peptide-mediated binding of Co-NTA magnetic beads to gray hair, visual rating on magnet; design: species or system human; conditions: Table 11; peptide 0.2 μM
Description: Approximately 5 mg of 5 mm long hair strands (90% gray, human) were transferred to 2-mL microcentrifuge tubes. Approximately 1 mL of TBST0.1 buffer (25 mM Tris, 150 mM NaCl, pH7.2, with 0.1% TWEEN®-20) or the same buffer including varying concentrations of HC263 peptide was added to the hair.
The mixtures were shaken on a Nutator for one hour at room temperature (˜22° C.). The hairs were washed three times with TBST0.5 buffer (25 mM Tris, 150 mM NaCl, pH 7.2, with 0.5% TWEEN®-20). After washing, the hairs were resuspended in 900 μL Talon buffer (50 mM sodium phosphate, pH 8.0, 300 mM sodium chloride, 0.01% TWEEN®-20). A subset of hair/peptide conjugates were washed additionally one time with 1 mL of 0.25% SLES (Sodium Lauryl Ether Sulfate) for 5 min at room temperature on the Nutator, then washed two times with 1 mL TBST0.1 buffer. Approximately 0.2 mg of TALON™ beads (DYNABEADS® TALONT™, Invitrogen, Catalog#101.01D) were washed twice with TALON™ buffer on the DYNAL® MPC™ magnet and added to each reaction in 100 μL TALON™ buffer. […]
Beads binding to the hair were expected to co-migrate on the sides of the tubes once applied to the magnet. The strength of binding was visually assessed and rated on a scale of 0 (little or no observed binding) to 5 (highest amount of observed binding). […]

[6] = Table 17, 200 nm particles, initial, before washing with water
[7] = Table 18, 200 nm particles, after washing with water
[8] = Table 18, 500 nm particles, after washing with water
[9] = Table 19, 200 nm particles, after 0.25% SLES wash

Chain of streptavidin (P22629 25-183): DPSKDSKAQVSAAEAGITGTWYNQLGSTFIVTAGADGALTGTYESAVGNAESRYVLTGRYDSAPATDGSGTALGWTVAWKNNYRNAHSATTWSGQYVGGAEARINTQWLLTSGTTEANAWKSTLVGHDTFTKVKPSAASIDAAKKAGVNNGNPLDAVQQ

Substance: HCP5-GGSGPGSGG-HCP5-K [(HCP5)2-biotin]
- deposition of beads on hair [1]: 200 nm beads were deposited on the hair
- binding of 40 nm fluorescently-labeled streptavidin-coated polystyrene particles to hair [2]: bound the particles to hair
- perceptible color ([3]; 200 nm beads): did not exhibited perceptible color
- perceptible color ([3]; 500 nm beads): exhibited perceptible color
- color intensity value (0-5, 0 no color deposition, 5 deepest color) [3]: 4
- color measurement (0-5 color scale) [3, 6]: 0
- color measurement (0-5 color scale) [3, 7]: 0
- color measurement (0-5 color scale) [3, 8]: 3
- color measurement (0-5 color scale) [3, 9]: 0

Substance: THSTHNHGSPRHTNADAGNPK-Biotin [HCP1]
- MB50 ([4]; substrate 90% gray hair): 0.044 µM
- MB50 ([4]; substrate Unipure Red particle): 9.8 µM

Substance: MLSENWLTNHPQN [SB33N]
- Kd (streptavidin): ~100 µM

Substance: TPPELAHTPHHLAQTRLTDRK-Biotin [Hair4]
- MB50 ([4]; substrate 90% gray hair): 0.15 µM
- MB50 ([4]; substrate Unipure Red particle): 5 µM

Substance: HCP5-GGSGPGSGG-HCP5 [(HCP5)2]
- color intensity value (0-5, 0 no color deposition, 5 deepest color) [3]: 0
- color scale score (0-5) ([3]; Table 16, streptavidin-coated iron oxide beads, sequential coloring method): 0
- color measurement (0-5 color scale) [3, 6]: 0
- color measurement (0-5 color scale) ([3]; Table 17, 500 nm particles, initial, before washing with water): 0
- color measurement (0-5 color scale) [3, 7]: 0
- color measurement (0-5 color scale) [3, 8]: 0
- color measurement (0-5 color scale) [3, 9]: 0
- color measurement (0-5 color scale) ([3]; Table 19, 500 nm particles, after 0.25% SLES wash): 0

Substance: HINKTNPHQGNHHSEKTQRQK-Biotin [MEA4]
- MB50 ([4]; substrate 90% gray hair): 0.061 µM
- MB50 ([4]; substrate Unipure Red particle): 8.7 µM

Substance: AQSQLPDKHSGLHERAPQRYK-Biotin [Hair2]
- MB50 ([4]; substrate 90% gray hair): 0.25 µM
- MB50 ([4]; substrate Unipure Red particle): 6.8 µM

Substance: GSDPG-Gray3-GGG-Gray3-GGGGSGGGGSG-HHHHHH (GSDPGHDHKNQKETHQRHAAGGGHDHKNQKETHQRHAAGGGGSGGGGSGHHHHHH) [HC214]
- Strength of binding (5 highest, 0 lowest) [5]: 0

Substance: GSDPG-IB5A-GGGGSGGGGSG-HHHHHH (GSDPGTPPELLHGAPRSGGGGSGGGGSGHHHHHH) [HC205]
- Strength of binding (5 highest, 0 lowest) [5]: 0

— US20100247590A1, “Peptide-Based Systems For Delivery Of Cosmetic Agents” (JOHNSON & JOHNSON, priority 2009, published 2010)
